Experimental data: article PMC7297817, “Pharmacological Characterization of a Betaine/GABA Transporter 1 (BGT1) Inhibitor Displaying an Unusual Biphasic Inhibition Profile and Anti-seizure Effects” (Neurochemical Research, 2020)
“Also recorded” adds a separate entry of the source. Like-named read-outs stand apart in the source and are kept apart here.

Assays:
[1] = tested on: 74 different neuroreceptors and ion channels; settings: adrenergic, GABAergic and dopaminergic receptors included; cited from earlier work
hBGT1 = target: T1, hBGT1 (Homo sapiens, UniProt P48065); test: [3H]GABA uptake at hBGT1 transiently expressed in tsA201 cells; type: cell-based; settings: for IC50 / inhibition profile (mono-/biphasic): 30 nM [3H]GABA, 3 min; for Frac: proportion of maximal response due to the more potent phase; for inhibition profile (mono-/biphasic): F test; for preferred curve fitting: in the presence of 10 μM ATP
T1 construct: expressed in transfected cells; host or cells: tsA201 (transient)
T1 sequence (P48065 1-614): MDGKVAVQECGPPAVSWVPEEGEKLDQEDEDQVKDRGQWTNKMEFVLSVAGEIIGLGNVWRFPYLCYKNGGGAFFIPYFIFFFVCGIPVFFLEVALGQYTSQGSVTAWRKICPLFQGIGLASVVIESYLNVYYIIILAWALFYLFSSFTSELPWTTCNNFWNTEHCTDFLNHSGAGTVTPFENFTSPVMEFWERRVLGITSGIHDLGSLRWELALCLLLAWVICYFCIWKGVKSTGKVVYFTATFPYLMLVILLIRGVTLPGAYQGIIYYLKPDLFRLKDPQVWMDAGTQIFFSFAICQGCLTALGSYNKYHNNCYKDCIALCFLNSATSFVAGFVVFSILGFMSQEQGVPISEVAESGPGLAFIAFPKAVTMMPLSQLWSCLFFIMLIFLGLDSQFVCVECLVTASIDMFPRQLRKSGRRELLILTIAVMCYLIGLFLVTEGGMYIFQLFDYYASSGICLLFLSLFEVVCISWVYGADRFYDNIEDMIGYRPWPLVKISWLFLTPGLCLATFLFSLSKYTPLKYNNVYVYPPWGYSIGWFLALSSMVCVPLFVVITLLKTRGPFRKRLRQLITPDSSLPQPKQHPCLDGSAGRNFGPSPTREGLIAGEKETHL
Method: The tsA201 cell line was used for transient expression while the MDCK II cell line express BGT1 endogenously. Both cell lines were cultured as described. tsA201 cells were transfected with DNA constructs (8 μg per 10 cm dish if not otherwise mentioned) using 40 μL PolyFect transfection reagent according to the manufacturer’s protocol (Qiagen, Venlo, Netherlands). The DNA constructs encoding hBGT1, hGAT1-3 [36], the mutated constructs hBGT1 Q299 and hGAT3 L314Q described previously, and hBGT Y453A were synthesized and sequence validated by Genscript (NJ, USA).
The [^3H]GABA competition uptake assay was performed as previously described. […] Studies related to the inhibition curves with GABA and BPDBA at hBGT1 were obtained both with and without the presence of 10 μM ATP during the [^3H]GABA uptake assay.
All compounds, except BAPTA/AM, were also present at the same concentration during the course of the actual [^3H]GABA uptake assay.
The [^3H]GABA uptake data was normalized to the percentage of total uptake in the individual experiments in the presence of the lowest compound concentration or no compound present. Data presented is the pooled data of at least three independent experiments with three technical replicates. Concentration–response curves (CRCs) were fitted with GraphPad Prism (version 8.2.1, Yosemite, GraphPad Software, San Diego, CA, USA) by non-linear regression to the sigmoidal concentration response model: Y=Bottom+(Top-Bottom)/1+10^LogIC50-X∗nH where Top is the Top plateau, Bottom is the Bottom plateau, X is the logarithm of the concentration of the compound, LogIC50 is the concentration giving a response halfway between Top and Bottom,and nH is the Hill slope.
The best fit for CRCs obtained with the [^3H]GABA uptake assay was identified by the extra-sum-of-squares F test (for convenience referred to as F test).

[2] = tested on: tsA201 cells transiently expressing hBGT1; test: Fluo-4 Ca2+-assay in tsA201 cells transiently expressing hBGT1; type: cell-based, human; settings: within the 3 min timeframe; blocked by BAPTA/AM
Method: Emission was recorded for 20 s. before adding the compounds (at 4 × concentrations) to the HBSS-HEPES buffer to determine the baseline. […] Data presented is the pooled data of at least three independent experiments with three technical replicates. Changes in fluorescence units (ΔFU) were determined as the maximum fluorescent signal within the 190 s minus the average of the baseline.

[3] = read-out: IC50, low affinity component (high IC50), biphasic fit, tsA201, 8 μg cDNA
[4] = biphasic fit, tsA201, 8 μg cDNA, read-out: IC50, low affinity component (high IC50)
[5] = monophasic fit (biphasic n.s.), read-out: IC50

N-[4,4-bis(3-methyl-2-thienyl)-3-butenyl]-3-hydroxy-4-(methylamino)-4,5,6,7-tetrahydrobenzo[d]isoxazol-3-ol [EF1502]
activity at a broad range of neurotransmitter systems [1]: completely devoid of any activity

Cc1ccsc1C(=CCCN(C)[C@@H]1CCCC[C@@H]1C(=O)O)c1sccc1C [(1S,2R)-5a, (1S,2R)-2-((4,4-bis(3-methylthiophen-2-yl)but-3-en-1-yl)(methyl)amino)cyclohexane-1-carboxylic acid]
IC50 (hBGT1; IC50, high affinity component (low IC50), biphasic fit, tsA201, 8 μg cDNA): 4.7 µM | Frac (hBGT1; 8 μg cDNA): 0.28 | IC50 (hBGT1; [3]): 370 µM

CN(CCC=C1c2ccccc2CCc2ccccc21)[C@@H]1CCCC[C@@H]1C(=O)O [(1R,2S)-5c, (1S,2R)-2-((3-(10,11-dihydro-5H-dibenzo[a,d][7]annulen-5-ylidene)propyl)(methyl)amino)cyclohexane-1-carboxylic acid]
IC50 (hBGT1; biphasic fit, tsA201, 8 μg cDNA, read-out: IC50, high affinity component (low IC50)): 11.2 µM | IC50 (hBGT1; [4]): 819 µM | Frac (hBGT1; 8 μg cDNA): 0.26

Nc1ncnc2c1ncn2[C@@H]1O[C@H](COP(=O)(O)OP(=O)(O)OP(=O)(O)O)[C@@H](O)[C@H]1O [ATP, adenosine 5′-triphosphate, reference compound]
decrease of total [3H]GABA uptake (hBGT1; ATP present during uptake (10 μM per methods)): 9% | intracellular Ca2+ increase [2]: induced a Ca^2+ increase

COc1ccccc1C1(O)CCN(CCCn2c3ccccc3c3ccccc32)CC1 [NNC 05-2090, 1-[3-(9H-Carbazol-9-yl)propyl]-4-(2-methoxyphenyl)-4-piperidinol, reference compound]
inhibition profile (mono-/biphasic) (hBGT1): did not inhibit hBGT1 in a biphasic manner | IC50 (hBGT1; [5]): 117 µM

NCCCC(=O)O [GABA, γ-Aminobutyric acid]
inhibition profile (mono-/biphasic) (hBGT1): monophasic | preferred curve fitting (hBGT1): monophasic fit

O=C(NC1CCN(Cc2ccccc2)CC1)c1ccc(Cl)cc1Cl [BPDBA, N-(1-benzyl-4-piperidinyl)-2,4-dichlorobenzamide, reference compound]
inhibition profile (mono-/biphasic) (hBGT1): monophasic; also recorded: did not inhibit hBGT1 in a biphasic manner | preferred curve fitting (hBGT1): monophasic fit | IC50 (hBGT1; [5]): 14.8 µM | IC50 (hBGT1; monophasic fit (biphasic n.s.), read-out: pIC50 ± S.E.M. (converted)): 15.1 µM

Cc1ccsc1C(=CCCN(C)[C@@H]1CCCC[C@H]1C(=O)O)c1sccc1C [(1R,2R)-4a, (1R,2R)-2-((4,4-bis(3-methylthiophen-2-yl)but-3-en-1-yl)(methyl)amino)cyclohexane-1-carboxylic acid]
IC50 (hBGT1; pIC50 ± S.E.M., high affinity component, biphasic fit, tsA201, 8 μg cDNA): 3.39 µM | Frac (hBGT1; 8 μg cDNA): 0.19 | IC50 (hBGT1; [3]): 566 µM

Cc1ccsc1C(CCCN(C)[C@@H]1CCCc2onc(O)c21)c1sccc1C [(R)-EF1502, (R)-4-((4,4-bis(3-methylthiophen-2-yl)butyl)(methyl)amino)-4,5,6,7-tetrahydrobenzo[d]isoxazol-3-ol, reference compound]
inhibition profile (mono-/biphasic) (hBGT1): biphasic CRC | nH1 (hBGT1; Hill slope of first phase, 8 μg cDNA): –0.79 | nH2 (hBGT1; Hill slope of second phase, 8 μg cDNA): –2.35 | IC50 (hBGT1; [4]): 190 µM | IC50 (hBGT1; biphasic fit, tsA201, 8 μg cDNA, read-out: pIC50 ± S.E.M., high affinity component (converted)): 2.45 µM | Frac (hBGT1; 8 μg cDNA): 0.30
